Marks after values point to notes of the source that are not given here.
Tests used:
[1] = system: cryopreserved human hepatocytes; conditions: for HμREL clearance CLhurel: flow 4.5 μL/min/chip, 30,000 hepatocytes per chamber, 100 μL; for Depletion of the parent compound, HμREL device: human hepatocytes under flow, at 24 h
[2] = system: cryopreserved human hepatocytes; conditions: at 24 h
[3] = human, known in vivo clearance values; ref literature (citation not given); cited from earlier work

| SMILES | HμREL clearance CLhurel [1] | Depletion of the parent compound, static culture system [2] | Depletion of the parent compound, HμREL device [1] | In vivo clearance [3] |
| --- | --- | --- | --- | --- |
| Cn1c(=O)c2c(ncn2C)n(C)c1=O [Caffeine, caffeine] | 0.01^a μL/min/chip | did not show significant depletion | did not show significant depletion |  |
| CC(C)(C)NC[C@H](O)COc1nsnc1N1CCOCC1 [Timolol, timolol] | 0.35 μL/min/chip |  |  | 7.7 ± 1.2 mL/min/kg |
| NC(=O)N1c2ccccc2C=Cc2ccccc21 [Carbamazepine, carbamazepine] |  | did not show significant depletion | did not show significant depletion | 1.3 ± 0.5 mL/min/kg |

Now from value to compound, other results behind:

| HμREL clearance CLhurel [1] | SMILES | Depletion of the parent compound, static culture system [2] | Depletion of the parent compound, HμREL device [1] | In vivo clearance [3] |
| --- | --- | --- | --- | --- |
| 3.13 μL/min/chip | O=C1CC2(CCCC2)CC(=O)N1CCCCN1CCN(c2ncccn2)CC1 [Buspirone, buspirone] |  |  |  |
| 1.13 μL/min/chip | CCCc1nn(C)c2c(=O)[nH]c(-c3cc(S(=O)(=O)N4CCN(C)CC4)ccc3OCC)nc12 [Sildenafil, sildenafil] |  |  | 6.0 ± 1.1 mL/min/kg |
